From patent US20250282895A1, “PHARMACEUTICAL COMPOSITIONS OF CHEMOTHERAPEUTIC AGENTS BASED ON BETA-S[…]-AMINO ACID DERIVATIVES” (priority 2021, published 2025)

What was measured:
Format in all cases: physicochemical
[1] = Comparative stability, Formulation 4 (based on Treanda, mannitol); conditions: pH 4-5 (bendamustine), pH 4 (Compound (1c)•HCl)
Protocol: (§1) The stability of Compound (1c) either as the HCl salt or as the free base was compared to the stability of melphalan HCl and/or bendamustine HCl in various pharmaceutical formulations and at different concentrations and at temperatures of 0° C. or 25° C.
(§2) The stability of the compounds in the pharmaceutical formulations was determined at concentrations within the range from 0.4 mg/mL to 0.5 mg/mL, from 0.9 mg/mL to 1.1 mg/mL, and from 1.8 mg/mL to 2.1 mg/mL.
(§3) The amount of the active pharmaceutical ingredient (API) (Compound (1c), melphalan or bendamustine) in the pharmaceutical formulations at different times during storage was determined using HPLC/UV as described in detail for Example 4 and Example 5.
Treanda® is an injectable formulation of bendamustine hydrochloride, 1H-benzimidazole-2-butanoic acid, 5-[bis(2-chloroethyl)amino]-1-methyl-, 4-(5-(bis(2-chloroethyl)amino)-1-methyl-1H-benzo[d]imidazol-2-yl) butanoic acid monohydrochloride approved by the FDA. Treanda® for injection is provided in a vial containing either 25 or 100 mg of bendamustine HCl as a white to off-white lyophilized powder. Each vial contains either 25 mg or 100 mg of bendamustine hydrochloride and 42.5 mg or 170 mg of mannitol, USP, which is reconstituted in either 0.9% sodium chloride injection, USP, or 2.5% dextrose/0.45% sodium chloride solution injection, USP to a final concentration of 0.2 mg/mL-0.6 mg/mL and adjusted to a pH from 2.5 to 3.5.
A series of 12 mL glass vials each containing 12.5 mg (0.0317 mmol) of bendamustine mono-hydrochloride salt (C16H21C12N3O2·HCl, 394.72 g/mol; MedKoo, 200470) (corresponding to 11.3 mg of bendamustine as the free base) were prepared through weighing out the commercial compound into the vials. To each of the vials either containing bendamustine mono-hydrochloride salt was added 21.3 mg (0.117 mmol) of D-mannitol (C6H14O6, MW 182.17 g/mol; SigmaAldrich, M1902). The mixtures were dissolved in 2.0 mL of double distilled water (dd-H2O) (Arrowhead), the clear colorless solutions were frozen at −78° C. (dry ice/acetone bath), and the solvents were lyophilized off at about 100 mTorr within about 16 h to afford colorless solids.
A stock solution was prepared by dissolving 85.0 mg (0.255 mmol) of Compound (1c) (free base) and 170.4 mg of D-mannitol (0.935 mmol) (C6H14O6, MW 182.17 g/mol; SigmaAldrich, M1902), and 0.503 mL of 0.5072 M aq. HCl (0.255 mmol, 1.0 eq.) (Fluka, 318957) in about 16.0 mL of a mixture of acetonitrile/water (1:1, v/v) with vortexing in clean graduated glass cylinder (25 mL) to afford a stock solution of Compound (1c) as a mono-HCl salt of a concentration of 5.313 mg/mL and a D-mannitol concentration of 10.65 mg/mL. This solution was filtered through a 0.22 μm PTFE syringe filter into a clean 25 mL Erlenmeyer flask. Aliquots of 2.0 mL (2× 1.0 mL; 2× 5.313 mg) of this stock solution were rapidly pipetted into clean 12 mL scintillation vials. The aliquots were frozen at −78° C. (dry ice/acetone bath) and lyophilized at about 100 mTorr for about 16 hours to provide test vials each containing 11.8 mg (0.0319 mmol) of Compound (1c) mono-hydrochloride salt (mono-HCl salt) (corresponding to 10.6 mg of Compound (1c) as a free base) and 21.3 mg (0.117 mmol) of D-mannitol as a colorless powdery solid.
The materials in the vials were dissolved 2.5 mL of double-distilled water (dd-H2O) (Arrowhead) to provide clear colorless, non-viscous stock solutions of a concentration of 4.24 mg/mL of Compound (1c) as the monohydrochloride salt or 4.54 mg/mL of bendamustine as the mono-hydrochloride salt, respectively.
1.0 mL of the stock solution containing 4.24 mg/mL of Compound (1c) as the monohydrochloride salt was diluted with 9.0 mL of 0.9% saline to afford 10.0 mL of a test solution of a concentration of 0.424 mg/mL of Compound (1c) as the monohydrochloride salt and with a pH of about 4. […]

[2] = Stability of Compound (1c) free base in PBS buffer (LC/MS/MS); conditions: PBS buffer pH 7.4, 37° C., 1 μM
Protocol: A stability assay was carried out in 96-well microtiter plates. (S)-3-Amino-4-(5-(bis(2-chloroethyl)amino)-2-methylphenyl) butanoic acid (Compound (1c) free base) was incubated at 37° C. in phosphate buffered saline (PBS buffer), pH 7.4. The reaction mixtures (30 μL) contained a final concentration of 1 μM of Compound (1c). The percent Compound (1c) remaining in the mixture was determined using LC/MS/MS.
At each of the sampling time points, 300 μL of quench solution (50 vol-% acetonitrile, 50 vol-% methanol containing 1.3% (v/v) of 6N HCl) with internal standards (bucetin for positive ESI mode; warfarin for negative ESI mode) was transferred to each well. Plates were sealed and centrifuged at 4° C. for 15 min at 4,000 rpm. The supernatant was transferred to new plates for LC/MS/MS analysis.
All samples were analyzed on LC/MS/MS using an AB Sciex API 4000® instrument, coupled to a Shimadzu LC-20AD LC Pump system. Analytical samples were separated using a Waters Atlantis T3 dC18 reverse phase HPLC column (20 mm×2.1 mm) at a flow rate of 0.4 mL/min. The mobile phases consisted of 0.1% formic acid in water (solvent A) and 0.1% formic acid in 100% acetonitrile (solvent B).

[3] = Comparative stability, Formulation 3 (based on Evomela, SBE6.5-β-CD); conditions: Formulation 3, 25° C., 0.4-0.5 mg/mL, pH 5.8-6.1 (melphalan), pH 5-6 (Compound (1c)•HCl)
Protocol: as §1, §2, §3
Evomela® is an injectable formulation of melphalan hydrochloride, 4-[bis(2-chloroethyl)amino]-L-phenylalanine hydrochloride, approved by the FDA. Evomela® is supplied as a sterile white to off-white lyophilized powder in a single-dose vial for intravenous use. Each vial containing 50 mg melphalan free base equivalent to 56 mg melphalan hydrochloride and 2,700 mg betadex sulfobutyl ether (SBE6.5-β-CD; sulfobutyl ether β-cyclodextrin sodium) sodium, NF. Normal saline solution (0.9% Sodium Chloride Injection, USP) (8.6 mL as directed) is used to reconstitute Evomela® to a total of 10 mL having a 5 mg/mL nominal concentration of melphalan. The required volume of Evomela® needed for a patient dose is withdrawn from the vial(s) and added to the appropriate volume of 0.9% Sodium Chloride Injection, USP, to a final nominal concentration of 0.45 mg/mL of melphalan. This solution is then infused via an injection port or central venous catheter.
A series of 12 mL glass vials each containing 5.5 mg (0.0165 mmol of Compound (1c) free base and 270 mg of SBE6.5-β-CD, Captisol®) were prepared as described in Example 4.
The cyclodextrin derivative/Compound (1c) free base guest-host inclusion complex was reconstituted by dissolving the guest-host inclusion complex in 0.86 mL of 0.9% saline to provide 1.0 mL of a solution having a nominal concentration of 5.5 mg/mL of Compound (1c) free base.
(§4) A 1.0 mL aliquot of this solution was diluted with 10.0 mL of 0.9% saline, and the pH adjusted with 5 μL of a saturated aqueous NaHCO3 solution to provide 11.0 mL of a clear, colorless solution having a nominal concentration of 0.50 mg/mL of Compound (1c) from Compound (1c) free base and a pH from 5.8 to 6.1.
as §4, with “4.5” for “10.0”, “5.5” for “11.0”, “1.0” for “0.50”, “of about” for “from 5.8 to”
as §4, with “1.75” for “10.0”, “2.75” for “11.0”, “2.0” for “0.50”, “of about” for “from 5.8 to”
A series of 12 mL glass vials each containing 6.1 mg (0.0165 mmol of Compound (1c) mono-hydrochloride salt (corresponding to 5.5 mg of Compound (1c) free base) and 270 mg of SBE6.5-β-CD, Captisol®) were prepared as described in Example 5.
The cyclodextrin derivative/Compound (1c) mono-HCl salt guest-host inclusion complex was reconstituted by dissolving the guest-host inclusion complex in 0.86 mL of 0.9% saline to provide 1.0 mL of a solution having a nominal concentration of 6.1 mg/mL of Compound (1c) mono-HCl salt (corresponding to a nominal concentration of 5.5 mg/mL of the Compound (1c) free base).
as §4, with “0.5” for “1.0”, “5.0” for “10.0”, “5.5” for “11.0”, “mono-hydrochloride” for “free base”, “5.3” for “5.8”, “5.5. […]” for “6.1.”

## Cl.Cn1c(CCCC(=O)O)nc2cc(N(CCCl)CCCl)ccc21 [Bendamustine•HCl, 4-(5-(bis(2-chloroethyl)amino)-1-methyl-1H-benzo[d]imidazol-2-yl) butanoic acid monohydrochloride, reference compound]
[1]; Formulation 4, 0° C., 0.5 hours, 0.4-0.5 mg/mL
  % API: 98%
[1]; Formulation 4, 0° C., 2.0 hours, 0.4-0.5 mg/mL
  % API: 95%
[1]; Formulation 4, 25° C., 0.5 hours, 0.4-0.5 mg/mL
  % API: 98%
[1]; Formulation 4, 25° C., 0.5 hours, 0.9-1.1 mg/mL
  % API: 97%
[1]; Formulation 4, 25° C., 0.5 hours, 1.8-2.1 mg/mL
  % API: 95%
[1]; Formulation 4, 25° C., 2.0 hours, 0.4-0.5 mg/mL
  % API: 91%
[1]; Formulation 4, 25° C., 2.0 hours, 0.9-1.1 mg/mL
  % API: 95%
[1]; Formulation 4, 25° C., 2.0 hours, 1.8-2.1 mg/mL
  % API: 89%

## Cc1ccc(N(CCCl)CCCl)cc1C[C@H](N)CC(=O)O [Compound (1c), (S)-3-amino-4-(5-(bis(2-chloroethyl)amino)-2-methylphenyl) butanoic acid]
[2]; 0 min
  Compound (1c) Remaining (%): 100%
[2]; 15 min
  Compound (1c) Remaining (%): 78%
[2]; 30 min
  Compound (1c) Remaining (%): 68%
[2]; 60 min
  Compound (1c) Remaining (%): 56%
[2]; 120 min
  Compound (1c) Remaining (%): 30%
[2]; 240 min
  Compound (1c) Remaining (%): 10%

## N[C@@H](Cc1ccc(N(CCCl)CCCl)cc1)C(=O)O [Melphalan free base, melphalan, reference compound]
[3]; 0.5 hours
  % API: 97%
[3]; 2.0 hours
  % API: 84%
